Tests used:
[1] = stated as known property of the chemical; cited from earlier work
[2] = tested on: skin tissues (Episkin / Mutz3-LC co-culture); assay: cytokine measurements (27 cytokines) of skin tissues exposed to known sensitizing chemicals, analysed by PCA; type: cell-based, human; conditions: several chemical concentrations, multiple replicates, comparison IE vs SA
Experimental: We have taken cytokine measurements of skin tissues that were exposed to known sensitizing chemicals. […] Principal component analysis (PCA) was used to reduce the high dimensional data into a lower dimension so that the differences in response from each chemical could be visualized.
Multiple cytokines and growth factors were assessed using the Biorad Bioplex Analyzer. 1 ml supernatants were collected for undifferentiated Mutz3 cells, Day 7 differentiated cells [Mutz3-LC] and Day 9 mature cells [mMutz3-LC]. The supernatants were tested for 27 cytokines with respective standards to detect cytokine secretion levels. Basal media samples were utilized as controls and supplementation with growth factors and cytokines viz. GMCSF, TGF-beta1, TNF-alpha, IL-6, IL1β were taken into account in the calculations. Cytokine secretion levels [pg/ml] were converted to [pg/million cells/day] by normalizing with the cell number for each cell stage of differentiation.
Different doses of SA (Salicylic Acid), IE (Isoeugenol), PPD (Paraphenylenediamine) and DNCB (DiNitroChlorobenzene) were topically applied onto a 1 cm^2 nylon disc to Episkin™ in 12 well inserts. The lower chamber consisted of Mutz3-LCs at a density of 250,000 cells/ml. Forty eight (48) hrs post sensitization, cells were resuspended in 1 ml fresh maturation media, supernatants were collected for subsequent analysis and cell count was performed. […]

Row | SMILES | skin sensitizer class [1] | cytokine profile induced in skin tissues (PCA, FIG. 11) [2]
1 | CC=Cc1ccc(O)c(OC)c1 [isoeugenol] | strong sensitizer | do not induce distinct cytokine profiles
2 | O=C(O)c1ccccc1O | non-sensitizing irritant | do not induce distinct cytokine profiles

Reference: US20140213466A1, “HIGH-THROUGHPUT ASSESSMENT METHOD FOR CONTACT HYPERSENSITIVITY” (Rutgers, The State University of New Jersey, priority 2010, published 2014)
